This is an account of results in ChEMBL document CHEMBL1201862, “PubChem BioAssay data set” (2004).

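A five-concentration, 48-hour dose response in 96-well plates underlies each endpoint, interpolated linearly between surrounding concentrations. GI50 is the concentration that inhibits growth by half.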 The source made the active and inactive calls. No stated cut-off is given here; in the data, active = GI50 up to about 1.1 µM and inactive = higher. Where only a bound is given, the exact number is not on record here.

Test systems include UACC-62; HOP-62; OVCAR-3; NCI-H226; SNB-78; SF-539; UO-31; COLO 205; A549; 786-0; MOLT-4; CCRF-CEM; HOP-92; HCC 2998; SN12C; RPMI-8226; TK-10; SK-OV-3.
Common to all, as to assay: NCI anticancer screen, dose series, 48 h

`CCO[C@@H]1C2C=CC(C2)[C@H]1[N+](=O)[O-]` (stereo partly specified): the GI50 with UACC-62, in the test with HOP-62, with OVCAR-3, with NCI-H226, in the test with SNB-78 and in the test on SF-539 was > 100 µM (inactive) throughout. In addition, the GI50 in the test with UO-31 is > 100 µM (inactive); in the test with COLO 205 it was > 100 µM (inactive); with A549, > 100 µM (inactive); with 786-0, > 100 µM (inactive); in the test on MOLT-4 it was > 100 µM (inactive); with CCRF-CEM, 36.9 µM (inactive). For the same compound, the GI50 is > 100 µM (inactive) in the test with HOP-92; > 100 µM (inactive) in the test with HCC 2998; > 100 µM (inactive) in the test with SN12C; 72.1 µM (inactive) in the test on RPMI-8226; > 100 µM (inactive) in the test with TK-10; > 100 µM (inactive) with SK-OV-3.
`CCOC(=O)/N=c1\ss/c(=N\C(=S)N(C)C)n1-c1ccccc1`: the GI50 was 72.3 µM (inactive) in the test with UACC-62; 42.5 µM (inactive) with HOP-62; 0.394 µM (active) in the test with OVCAR-3; > 10 µM (inactive) in the test on NCI-H226; 36.3 µM (inactive) in the test with SNB-78; 40.7 µM (inactive) with SF-539. The GI50 with UO-31 was > 10 µM (inactive); with COLO 205, 3.19 µM (inactive); in the test with A549, 1.11 µM (active); with 786-0, 14.6 µM (inactive); in the test on MOLT-4, 4.27 µM (inactive); in the test with CCRF-CEM, 29.6 µM (inactive). Besides, the GI50 in the test with HOP-92 is 25.8 µM (inactive); with HCC 2998, > 10 µM (inactive); in the test on SN12C, > 10 µM (inactive); in the test with RPMI-8226, 7.48 µM (inactive); in the test with TK-10 it was 63 µM (inactive); in the test on SK-OV-3, > 10 µM (inactive).
`CCOC(=O)/C(=C/c1ccc(Cl)cc1)N(CC)CC`: the GI50 in the test on UACC-62, in the test on HOP-62, in the test with NCI-H226, with SNB-78, with SF-539 and in the test on UO-31 was > 100 µM (inactive) each time. Besides, the GI50 is > 100 µM (inactive) with COLO 205; 90.4 µM (inactive) with A549; > 100 µM (inactive) with 786-0; > 100 µM (inactive) in the test on MOLT-4; > 100 µM (inactive) in the test on CCRF-CEM; 74.1 µM (inactive) with HOP-92. In addition, the GI50 in the test on HCC 2998, in the test with SN12C, with RPMI-8226, in the test on TK-10 and in the test with SK-OV-3 was > 100 µM (inactive) in each case.
Consider `CC1=C(/C=C/C(C)=C/C=C/C(C)=C/C=C/C=C(C)/C=C/C=C(C)/C=C/C2=C(C)C(=O)C(O)CC2(C)C)C(C)(C)CC(O)C1=O` (stereo unspecified), for which the GI50 in the test with UACC-62, in the test on HOP-62, in the test on OVCAR-3, in the test on NCI-H226, in the test with SNB-78 and in the test with SF-539 was > 100 µM (inactive) each time. In addition, the GI50 with UO-31, in the test on COLO 205, in the test with A549, in the test with 786-0, with MOLT-4 and with CCRF-CEM was > 100 µM (inactive) throughout. For the same compound, the GI50 with HOP-92, in the test with HCC 2998, in the test on SN12C, in the test on RPMI-8226, in the test on TK-10 and in the test on SK-OV-3 was > 100 µM (inactive) in each case.
Turning to `O=C(CC1=Nc2nnc(-c3nnc4n3C(=O)C(CC(=O)c3cccnc3)=N4)n2C1=O)c1cccnc1`, the GI50 with UACC-62, in the test on HOP-62, in the test on OVCAR-3, in the test on NCI-H226, with SNB-78 and in the test on SF-539 was > 100 µM (inactive) throughout. In addition, the GI50 in the test on UO-31, in the test with COLO 205, in the test with A549, in the test with 786-0, in the test with MOLT-4 and with CCRF-CEM was > 100 µM (inactive) in each case. Further, the GI50 with HOP-92, with HCC 2998, in the test on SN12C, with RPMI-8226, in the test on TK-10 and in the test on SK-OV-3 was > 100 µM (inactive) in each case.
As to `CN(C)C(=N/O)/C(=N\O)N(C)C`, the GI50 with UACC-62 is > 100 µM (inactive); in the test with HOP-62, > 100 µM (inactive); with NCI-H226 it was 15.6 µM (inactive); in the test with SNB-78 it was > 100 µM (inactive); with SF-539 it was > 100 µM (inactive); with UO-31, > 100 µM (inactive). In addition, the GI50 in the test with A549, in the test with 786-0, with MOLT-4, in the test with CCRF-CEM, in the test on HOP-92 and in the test with HCC 2998 was > 100 µM (inactive) throughout. The GI50 with SN12C, in the test with RPMI-8226, in the test on TK-10 and with SK-OV-3 was > 100 µM (inactive) throughout.
In the case of `c1ccc2c3nc(C4CCCC4)nc-3c(NC3CCCC3)[nH]c2c1`, the GI50 in the test on UACC-62 is 14 µM (inactive); with HOP-62 it was 19.1 µM (inactive); with OVCAR-3, 12.5 µM (inactive); with NCI-H226, 24.7 µM (inactive); in the test on SNB-78, 45.3 µM (inactive); in the test on SF-539, 15.3 µM (inactive). In addition, the GI50 was 21.6 µM (inactive) in the test on UO-31; 19 µM (inactive) in the test with COLO 205; 21 µM (inactive) in the test with A549; 8.07 µM (inactive) with 786-0; 6 µM (inactive) with MOLT-4; 5.89 µM (inactive) with CCRF-CEM. The GI50 with HOP-92 was 19.3 µM (inactive); in the test with HCC 2998 it was 6.76 µM (inactive); with SN12C, 32.7 µM (inactive); in the test on RPMI-8226, 21.2 µM (inactive); with TK-10 it was 35.2 µM (inactive); in the test with SK-OV-3, 32.1 µM (inactive).
As to `COc1ccc(CC(C)N)cc1` (stereo unspecified) [PARA-METHOXYAMPHETAMINE], the GI50 in the test on UACC-62, in the test on HOP-62, with OVCAR-3, in the test with NCI-H226, with SNB-78 and in the test on SF-539 was > 100 µM (inactive) each time. Besides, the GI50 in the test on UO-31, with COLO 205, in the test with A549, in the test on 786-0, in the test with MOLT-4 and with CCRF-CEM was > 100 µM (inactive) throughout. Also, the GI50 with HOP-92, in the test with HCC 2998, with SN12C, with RPMI-8226, in the test with TK-10 and in the test with SK-OV-3 was > 100 µM (inactive) throughout.
